In patent US20040010001A1, “Methods and compositions for modulating cell proliferation and cell death” (priority 1999, published 2004):
Where two headings read alike, the source gives them in different places.

Columns and labels:
Assay type in all cases: cell-based
[1] = test system: rat primary tumors, histocultures; assay: Drug effect in histocultures of rat primary tumors (inhibition of 3H-thymidine incorporation); details: Histocultures, Primary, 96 hours, read-out: Concentration producing 50% inhibition
[2] = test system: rat lymph node metastasis cells, monolayers; assay: Drug effect in monolayers of rat lymph node metastasis cells (inhibition of bromodeoxyuridine incorporation); details: 96 h, read-out: Concentration producing 50% inhibition
[3] = test system: rat lung metastasis cells, monolayers; assay: Drug effect in monolayers of rat lung metastasis cells (inhibition of bromodeoxyuridine incorporation); details: 96 h, read-out: Concentration producing 50% inhibition
[4] = test system: Human breast BC19 (subline of MCF7 transfected with mdr1); assay: FGF-induced resistance, inhibition of BrdU incorporation; details: read-out: Drug concentration needed to produce 50% inhibition
How it was run: (§1)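 Monolayers were pretreated for 96 h with human recombinant aFGF and/or bFGF in medium with 1% FBS (protein adjusted to 2 mg/ml, renewed every other day) and then drug-treated for 96 h. Antiproliferative effect was read as inhibition of BrdU incorporation.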

Human breast MCF7 = assay: as above; details: read-out: Drug concentration needed to produce 50% inhibition
How it was run: as §1

Human colon HT-29 = assay: as above; details: read-out: Drug concentration needed to produce 50% inhibition
How it was run: as §1

Human lung A459 = assay: as above; details: read-out: Drug concentration needed to produce 50% inhibition
How it was run: as §1

Human pharynx FaDu = assay: as above; details: read-out: Drug concentration needed to produce 50% inhibition
How it was run: as §1

Human prostate PC3 = assay: as above; details: Homo sapiens, read-out: Drug concentration needed to produce 50% inhibition
How it was run: as §1

Rat prostate MAT-LyLu = assay: as above; details: read-out: Drug concentration needed to produce 50% inhibition
How it was run: as §1

[5] = 96 h, r-aFGF + r-bFGF 0.04 ± 1 ng/ml
[6] = 96 h, r-aFGF + r-bFGF 0.08 ± 1 ng/ml
[7] = 96 h, r-aFGF + r-bFGF 0.32 ± 1 ng/ml
[8] = 96 h, r-aFGF + r-bFGF 0.64 ± 1 ng/ml
[9] = 96 h, r-aFGF + r-bFGF 1 ± 1 ng/ml

`O=c1[nH]cc(F)c(=O)[nH]1` [5-Fluorouracil] showed an IC50 [1] of 33 ± 12 µM, an IC50 ([2]; Monolayers (passage 0)) of 1.9 ± 0.06 µM and an IC50 ([2]; Monolayers (passage 1)) of 1.29 ± 0.06 µM. For the same molecule, the IC50 ([2]; Monolayers (passage 2)) was 1.09 ± 0.04 µM, the IC50 ([2]; Monolayers (passage 3)) was 0.83 ± 0.1 µM and the IC50 ([3]; Monolayers (passage 0)) was 2.84 ± 0.24 µM. For the same molecule, the IC50 ([3]; Monolayers (passage 1)) was 1.52 ± 0.08 µM, the IC50 ([3]; Monolayers (passage 2)) was 1.2 ± 0.04 µM and the IC50 ([3]; Monolayers (passage 3)) was 0.81 ± 0.04 µM. The IC50 ([4]; r-bFGF 0 ng/ml) was 0.975 µM, the IC50 ([4]; r-bFGF 0.01 ng/ml) was 1.07 µM and the IC50 ([4]; r-bFGF 0.1 ng/ml) was 1.37 µM. For the same molecule, the IC50 ([4]; r-bFGF 1 ng/ml) was 1.51 µM, the IC50 (Human breast MCF7; MCF7, r-bFGF 0 ng/ml) was 0.991 µM and the IC50 (Human breast MCF7; MCF7, r-bFGF 0.01 ng/ml) was 1.03 µM. The IC50 (Human breast MCF7; MCF7, r-bFGF 0.1 ng/ml) was 1.37 µM, the IC50 (Human breast MCF7; MCF7, r-bFGF 1 ng/ml) was 1.51 µM and the IC50 (Human colon HT-29; HT-29, 96 h, r-aFGF + r-bFGF 0 ng/ml) was 1.64 µM. It also gave an IC50 (Human colon HT-29; HT-29, 96 h, r-aFGF + r-bFGF 0.04 ± 1 ng/ml) of 1.76 µM, an IC50 (Human colon HT-29; HT-29, 96 h, r-aFGF + r-bFGF 0.08 ± 1 ng/ml) of 1.55 µM and an IC50 (Human colon HT-29; HT-29, 96 h, r-aFGF + r-bFGF 0.16 ± 1 ng/ml) of 1.61 µM. It also gave an IC50 (Human colon HT-29; HT-29, 96 h, r-aFGF + r-bFGF 0.32 ± 1 ng/ml) of 2.77 µM, an IC50 (Human colon HT-29; HT-29, 96 h, r-aFGF + r-bFGF 0.64 ± 1 ng/ml) of 5.21 µM and an IC50 (Human colon HT-29; HT-29, 96 h, r-aFGF + r-bFGF 1 ± 1 ng/ml) of 7.07 µM. For the same molecule, the IC50 (Human colon HT-29; HT-29, r-aFGF 0 ng/ml) was 1.64 µM, the IC50 (Human colon HT-29; HT-29, r-aFGF 1 ng/ml) was 1.62 µM and the IC50 (Human colon HT-29; HT-29, r-aFGF 10 ng/ml) was 1.58 µM. It also gave an IC50 (Human colon HT-29; HT-29, r-aFGF 50 ng/ml) of 1.63 µM, an IC50 (Human colon HT-29; HT-29, r-bFGF 0 ng/ml) of 2.09 µM and an IC50 (Human colon HT-29; HT-29, r-bFGF 1 ng/ml) of 2.36 µM. It also gave an IC50 (Human colon HT-29; HT-29, r-bFGF 10 ng/ml) of 2.23 µM, an IC50 (Human colon HT-29; HT-29, r-bFGF 50 ng/ml) of 2.25 µM and an IC50 (Human lung A459; A459, 96 h, r-aFGF + r-bFGF 0 ng/ml) of 0.862 µM. The IC50 (Human lung A459; A459, 96 h, r-aFGF + r-bFGF 0.04 ± 1 ng/ml) was 0.908 µM, the IC50 (Human lung A459; A459, 96 h, r-aFGF + r-bFGF 0.08 ± 1 ng/ml) was 0.995 µM and the IC50 (Human lung A459; A459, 96 h, r-aFGF + r-bFGF 0.16 ± 1 ng/ml) was 1.01 µM. It also gave an IC50 (Human lung A459; A459, 96 h, r-aFGF + r-bFGF 0.32 ± 1 ng/ml) of 1.62 µM, an IC50 (Human lung A459; A459, 96 h, r-aFGF + r-bFGF 0.64 ± 1 ng/ml) of 2.09 µM and an IC50 (Human lung A459; A459, 96 h, r-aFGF + r-bFGF 1 ± 1 ng/ml) of 3.63 µM. It also gave an IC50 (Human lung A459; A459, r-bFGF 0 ng/ml) of 0.87 µM, an IC50 (Human lung A459; A459, r-bFGF 1 ng/ml) of 1.01 µM and an IC50 (Human lung A459; A459, r-bFGF 10 ng/ml) of 1.38 µM. It also gave an IC50 (Human lung A459; A459, r-bFGF 50 ng/ml) of 1.71 µM, an IC50 (Human pharynx FaDu; 96 h, r-aFGF + r-bFGF 0 ng/ml) of 5.76 µM and an IC50 (Human pharynx FaDu; [5]) of 5.44 µM. It also gave an IC50 (Human pharynx FaDu; [6]) of 5.44 µM, an IC50 (Human pharynx FaDu; 96 h, r-aFGF + r-bFGF 0.16 ± 1 ng/ml) of 5.47 µM and an IC50 (Human pharynx FaDu; [7]) of 5.56 µM. The IC50 (Human pharynx FaDu; [8]) was 9.69 µM, the IC50 (Human pharynx FaDu; [9]) was 15.2 µM and the IC50 (Human pharynx FaDu; r-aFGF 0 ng/ml) was 5.75 µM. It also gave an IC50 (Human pharynx FaDu; r-aFGF 1 ng/ml) of 5.5 µM, an IC50 (Human pharynx FaDu; r-aFGF 10 ng/ml) of 5.45 µM and an IC50 (Human pharynx FaDu; r-aFGF 50 ng/ml) of 5.25 µM. The IC50 (Human pharynx FaDu; r-bFGF 0 ng/ml) was 4.34 µM, the IC50 (Human pharynx FaDu; r-bFGF 1 ng/ml) was 4.56 µM and the IC50 (Human pharynx FaDu; r-bFGF 10 ng/ml) was 4.79 µM. The IC50 (Human pharynx FaDu; r-bFGF 50 ng/ml) was 4.25 µM, the IC50 (Human prostate PC3; [5]) was 0.761 µM and the IC50 (Human prostate PC3; [6]) was 1.15 µM. For the same molecule, the IC50 (Human prostate PC3; [7]) was 2.54 µM, the IC50 (Human prostate PC3; [8]) was 3.77 µM and the IC50 (Human prostate PC3; [9]) was 5.74 µM. The IC50 (Human prostate PC3; 96 h, r-aFGF + r-bFGF) was 1.64 µM, the IC50 (Human prostate PC3; r-aFGF 0 ng/ml) was 0.81 µM and the IC50 (Human prostate PC3; r-aFGF 1 ng/ml) was 0.815 µM. It also gave an IC50 (Human prostate PC3; r-aFGF 10 ng/ml) of 0.695 µM, an IC50 (Human prostate PC3; r-aFGF 50 ng/ml) of 0.732 µM and an IC50 (Human prostate PC3; r-bFGF 0 ng/ml) of 0.741 µM. It also gave an IC50 (Human prostate PC3; r-bFGF 1 ng/ml) of 0.846 µM, an IC50 (Human prostate PC3; r-bFGF 10 ng/ml) of 2.41 µM and an IC50 (Human prostate PC3; r-bFGF 50 ng/ml) of 4.3 µM. The IC50 (Rat prostate MAT-LyLu; r-bFGF 0 ng/ml) was 0.746 µM, the IC50 (Rat prostate MAT-LyLu; r-bFGF 1 ng/ml) was 1.05 µM and the IC50 (Rat prostate MAT-LyLu; r-bFGF 10 ng/ml) was 1.99 µM. The IC50 (Rat prostate MAT-LyLu; r-bFGF 50 ng/ml) was 3.25 µM.
